{"source": "patent CN105367624A", "about": "“一种LLVV-Hemorphin-6肽的制备方法和用途” (Individual, priority 2015, dated 2016)", "tested_on": "4T1细胞", "experiment": "In vitro antitumor evaluation: MTT cell viability assay in 4T1 cells", "assay_type": "cell-based", "conditions": "48 h", "note": "Where no end group is shown, it is not given here.", "data": [{"sequence": "LLVVYPWTQR [LLVV-Hemorphin-6肽]", "values": [{"measurement": "细胞抑制效果 (cell inhibition effect), peptide alone at high concentration", "setting": "peptide 10 μM", "result": "存在一定的细胞抑制效果"}, {"measurement": "细胞抑制率 (cell inhibition rate), peptide alone", "setting": "peptide 0.0001-10 μM", "result": "较低"}]}]}
